Earlier results as cited in patent US20230159467A1, “NOVEL COMPOUNDS USEFUL IN THE TREATMENT AND/OR PREVENTION OF A DISEASE, DISORDER OR CONDITION ASSOCIATED WITH ANGIOTENSIN II” (Vicore Pharma AB, priority 2020, published 2023).

How the values were obtained:
CYP2D6 = CYP2D6 (Homo sapiens, UniProt P10635); settings: at 10 μM; from Bioorg. Med. Chem. 2010, 18 (12), 4570-4590; cited from earlier work
CYP2C19 = CYP2C19 (Homo sapiens, UniProt P33261); settings: at 10 μM; from Bioorg. Med. Chem. 2010, 18 (12), 4570-4590; cited from earlier work
CYP3A = settings: at 10 μM; midazolam substrate; from Bioorg. Med. Chem. 2010, 18 (12), 4570-4590; cited from earlier work

Sequence of CYP2D6 (P10635 whole entry): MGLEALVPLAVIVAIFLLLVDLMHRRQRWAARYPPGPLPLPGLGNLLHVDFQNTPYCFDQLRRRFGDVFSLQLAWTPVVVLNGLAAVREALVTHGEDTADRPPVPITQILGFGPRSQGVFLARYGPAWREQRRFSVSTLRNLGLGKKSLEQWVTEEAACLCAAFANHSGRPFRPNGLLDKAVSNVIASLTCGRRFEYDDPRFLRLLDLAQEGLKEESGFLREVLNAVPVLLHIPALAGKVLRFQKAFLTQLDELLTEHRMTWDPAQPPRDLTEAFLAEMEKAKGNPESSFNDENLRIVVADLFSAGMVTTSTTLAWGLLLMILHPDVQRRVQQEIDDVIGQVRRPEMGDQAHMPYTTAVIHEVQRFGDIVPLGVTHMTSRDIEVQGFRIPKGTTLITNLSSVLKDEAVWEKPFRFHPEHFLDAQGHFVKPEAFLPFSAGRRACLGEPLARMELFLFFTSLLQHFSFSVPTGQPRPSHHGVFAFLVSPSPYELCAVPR
Sequence of CYP2C19 (P33261 whole entry): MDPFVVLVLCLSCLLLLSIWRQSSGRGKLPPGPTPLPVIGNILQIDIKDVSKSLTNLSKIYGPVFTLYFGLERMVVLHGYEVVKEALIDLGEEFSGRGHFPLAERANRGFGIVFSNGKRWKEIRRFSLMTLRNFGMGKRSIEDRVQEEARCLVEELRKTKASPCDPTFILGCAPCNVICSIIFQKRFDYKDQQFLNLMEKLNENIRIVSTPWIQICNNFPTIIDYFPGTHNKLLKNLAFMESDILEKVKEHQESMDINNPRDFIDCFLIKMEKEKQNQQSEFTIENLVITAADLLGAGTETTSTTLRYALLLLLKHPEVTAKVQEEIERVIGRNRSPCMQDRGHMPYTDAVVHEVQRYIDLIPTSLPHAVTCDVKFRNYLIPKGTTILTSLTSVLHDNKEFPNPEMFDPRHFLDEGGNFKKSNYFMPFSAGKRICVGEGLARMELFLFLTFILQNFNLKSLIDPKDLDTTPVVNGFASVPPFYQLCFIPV

For `CCCCOC(=O)NS(=O)(=O)c1sc(CC(C)C)cc1-c1ccc(Cn2ccnc2)cc1` [Example C21, butyl ((3-(4-((1H-imidazol-1-yl)methyl)phenyl)-5-isobutylthiophen-2-yl)sulfonyl)carbamate], the “CYP 450 Inhibition CYP2D6” value (CYP2D6) is given as 41%, the “CYP 450 Inhibition CYP2C19” value (CYP2C19) is given as 67% and the “CYP 450 Inhibition CYP3A midazolam” value (CYP3A) is given as 82%.
